Reference: patent publication US20190151283A1, “NON-STEROIDAL SELECTIVE GLUCOCORTICOID RECEPTOR AGONISTIC MODULATORS (SEGRAMs) AND USES THEREOF” (ASSOCIATION POUR LA RECHERCHE À L'IGBMC (ARI), priority 2017, published 2019)
Values belong to the compound of their own block, whether it stands above or below them.

How the values were obtained:
[1] = test system: Balb/C mice; test: Skin atrophy after 8-day topical treatment of dorsal skin; type: in vivo, mouse
Excerpt: To investigate whether, similarly to Dex, a topical administration of CpdX could result in a skin atrophy, Balb/C mice were shaved on the dorsal skin. Ethanol (vehicle), Dex, CpdX or either one of its two enantiomers CpdX(eA) or CpdX(eB), as well as the deuterated form CpdX-D3 or either one of its two enantiomers CpdX-D3(eA) or CpdX-D3(eB), were topically applied onto the dorsal skin for 8 days.
Upon completion of the treatments, RNA transcripts were extracted from dorsal skin samples and the transcripts of Kindlin-1 and REDD1 genes were analyzed by q-RT-PCR. Histological and morphometric analyses of the dorsal skin were also performed.

[2] = test system: B6 male mice; test: Bone formation after three-month treatment (micro-CT, WNT16 transcripts); type: in vivo, mouse; conditions: three months
Description: (§1) B6 male mice (8-week-old) were daily subjected for three months to either a subcutaneous injection of vehicle (NaCl 0.9%), Dex, CpdX, CpdX(eA), CpdX(eB), CpdX-D3, CpdX-D3(eA) or CpdX-D3(eB) (1 mg/kg body weight, diluted in NaCl 0.9%).
From each animal included in the experiments, one femur and the ipsilateral tibia were dissected and preserved in 70% ethanol for further bone microstructure analysis by micro-CT. The FX Quantum micro-CT scanner (Perkin Elmer) was used to perform measurements at the distal femur and midshaft tibia. All scans were performed with an isotropic voxel size of 10 μm, 160 μA tube current and 90 kV tube voltage.
Morphological 3D measurements were performed using the CTAn software (Bruker). Cortical bone parameters, which were measured in the tibia midshaft, included measures of the bone volume fraction as compared to the total volume, cortical thickness, total area, bone area and marrow area. The region of interest was selected from below the distal tibial crest and continued for 20 slices toward the proximal end of the tibia. Trabecular bone parameters were measured in the distal metaphysis of the femurs and included bone volume fraction, trabecular thickness, trabecular number and trabecular spacing. The region of interest was selected from below the distal growth plate where the epiphyseal cap structure completely disappeared and continued for 100 slices toward the proximal end of the femur.
The statistical significance as compared to vehicle treatment was calculated through one-way ANOVA test followed by Dunn's multiple comparison test, *p<0.05; **p<0.01; ***p<0.001; ****p<0.0001.

[3] = test system: B6 male mice; test: Body weight and body composition after three-month treatment; type: in vivo, mouse; conditions: s.c. 1 mg/kg daily, 3 months
Description: B6 male mice (8-week-old) were daily subjected for three months to a subcutaneous injection of either vehicle (NaCl 0.9%), Dex, CpdX or CpdX-D3 (1 mg/kg body weight, diluted in vehicle. A pDEXA machine was used to determine the lean mass and fat mass. The statistical significance was calculated through Krustal-Walis test followed by a Dunn's multiple comparison test, *p<0.05; **p<0.01; ***p<0.001.

[4] = test system: B6 male mice; test: Organ weights (thymus, spleen, adrenal gland, kidney) after three-month treatment; type: in vivo, mouse; conditions: s.c. 1 mg/kg daily, three months
Description: as §1, with “to” for “to either”, “of either” for “of”, “vehicle). Following these treatments, four organs (thymus, spleen, adrenal gland and kidney) were harvested and weighted.” for “NaCl 0.9%).”

[5] = test system: B6 male mice; test: Corticosterone synthesis and adrenal gland after three-month treatment; type: in vivo, mouse
Description: B6 male mice (8-week-old) were daily subjected for three months to either a subcutaneous injection of vehicle (NaCl 0.9%), Dex, CpdX, CpdX(eA), CpdX(eB), CpdX-D3, CpdX-D3(eA) or CpdX-D3(eB) (1 mg/kg body weight, diluted in vehicle).
Following this long-term treatment, blood was collected at 10 a.m. and 6 p.m. by retro-orbital puncture in lithium-heparin coated vials, and the plasmatic level of corticosterone was determined. Adrenal glands were harvested and weighted. RNA transcripts were extracted and transcripts of the Cyp11a, Cyp11b1, Cyp11b2 and HSD3β genes were analyzed by q-RT-PCR. Histological analyses of the adrenal glands were also carried out.

[6] = test system: B6 male mice; test: Blood glucose and intraperitoneal glucose tolerance test after three-month treatment; type: in vivo, mouse
Description: B6 male mice (8-week-old) were daily subjected for three months to a subcutaneous injection of either vehicle (NaCl 0.9%), Dex, CpdX, CpdX(eA), CpdX(eB), CpdX-D3, CpdX-D3(eA) or CpdX-D3(eB) (1 mg/kg body weight, diluted in vehicle). Mice were over-night-fasted. Mouse blood glucose concentration was measured before (T0) and during two hours (T120) after glucose i.p. injection ([…] body weight).

[7] = test system: B6 male mice; test: Insulin level, insulin tolerance test and liver insulin signalling after three-month treatment; type: in vivo, mouse
Description: B6 male mice (8-week-old) were subjected daily for three months to a subcutaneous injection of either vehicle (NaCl 0.9%), Dex, CpdX, CpdX(eA), CpdX(eB), CpdX-D3, CpdX-D3(eA) or CpdX-D3(eB) (1 mg/kg body weight, diluted in vehicle). After three months, the blood was collected at 10 a.m. by retro-orbital puncture in lithium-heparin coated vials, and the plasmatic level of insulin was determined.
For the intraperitoneal insulin tolerance test (IPITT), mice were fasted for 6 hours before test. The blood glucose concentration was measured both before (T0) and during a one-hour period after insulin i.p. injection (0.75 U/kg body weight).
Following this three-month treatment, liver samples were harvested and lysed in the RIPA buffer (20 mM Tris pH 8, 150 mM NaCl, 10% glycerol, 1% NP-40 and 2 mM EDTA). Antibodies from Cell Signaling were used to assess by Western-Blotting the relative level of p-IRS1 (S318), IRS-1, p-AKT (S473) and AKT.

[8] = test system: B6 male mice; test: Fatty liver after three-month treatment; type: in vivo, mouse; conditions: three months
Description: B6 male mice (8-week-old) were daily subjected for three months to a subcutaneous injection of either vehicle (NaCl 0.9%), Dex, CpdX, CpdX(eA), CpdX(eB), CpdX-D3, CpdX-D3(eA) or CpdX-D3(eB) (1 mg/kg body weight, diluted in vehicle). Following this treatment, blood was collected at 10 a.m. by retro-orbital puncture in lithium-heparin coated vials. The plasmatic levels of total cholesterol and bile acids were determined.
Liver samples were harvested. […] RNA transcripts were extracted from liver samples and the transcripts of fatty acid synthase (FASN) and Stearoyl-CoA desaturase 1 (SCD1) genes were analyzed by q-RT-PCR.

[9] = test system: B6 male mice; test: Bone formation after three-month treatment (micro-CT, WNT16 transcripts); type: in vivo; conditions: mouse tibia, three months
[10] = target: T1, glucocorticoid receptor (GR) (Mus musculus, UniProt P06537); test: GR transcriptional functions in mouse ears after topical 18-hour treatment (q-RT-PCR); type: in vivo; conditions: in vivo transcriptional analyses, 1 nmole/cm^2
T1 construct: RNA transcripts were then extracted from mouse ears; from tissue; host or cells: ear skin of Balb/C mice (in vivo topical treatment)
T1 sequence (P06537 1-792): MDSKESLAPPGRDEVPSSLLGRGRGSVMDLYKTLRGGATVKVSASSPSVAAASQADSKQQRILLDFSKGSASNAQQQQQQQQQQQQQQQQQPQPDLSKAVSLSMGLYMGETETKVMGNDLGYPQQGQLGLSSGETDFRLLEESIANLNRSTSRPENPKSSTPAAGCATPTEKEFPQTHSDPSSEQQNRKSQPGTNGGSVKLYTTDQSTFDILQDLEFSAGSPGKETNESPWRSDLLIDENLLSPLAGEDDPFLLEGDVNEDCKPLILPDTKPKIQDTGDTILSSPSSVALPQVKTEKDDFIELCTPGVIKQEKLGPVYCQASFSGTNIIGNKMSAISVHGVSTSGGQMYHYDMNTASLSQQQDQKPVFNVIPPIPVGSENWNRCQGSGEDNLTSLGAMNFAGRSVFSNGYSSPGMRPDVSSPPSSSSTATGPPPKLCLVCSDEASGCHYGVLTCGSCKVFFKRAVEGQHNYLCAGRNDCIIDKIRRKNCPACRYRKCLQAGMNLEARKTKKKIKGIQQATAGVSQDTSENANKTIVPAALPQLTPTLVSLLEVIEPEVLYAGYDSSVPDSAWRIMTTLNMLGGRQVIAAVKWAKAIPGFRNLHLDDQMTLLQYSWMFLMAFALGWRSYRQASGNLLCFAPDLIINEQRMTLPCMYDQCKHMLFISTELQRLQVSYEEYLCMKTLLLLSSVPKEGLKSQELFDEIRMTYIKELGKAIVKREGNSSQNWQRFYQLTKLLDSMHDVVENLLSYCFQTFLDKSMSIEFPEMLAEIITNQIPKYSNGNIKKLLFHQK
Description: RNA transcripts were then extracted from mouse ears and the transcripts of 4 genes were analyzed by q-RT-PCR: • (i) the directly GR-transactivated gene of the mTOR inhibitor REDD1, • (ii) the GR-directly transrepressed gene of keratin 5 (K5) and • (iii) the GR-indirectly “tethered” transrepressed genes of interleukin-1β (IL-1β) and interleukin-6 (IL-6), both being activated in presence of 12-O-tetradecanoylphorbol-13-acetate (TPA).

- epidermal thickness decreases by ([1]; eight-day topical treatment, morphometric analysis): ≈ 65%
- skin atrophy, histological analysis ([1]; eight-day topical treatment, 'in marked contrast' = no severe atrophy as with Dex): severely induces a skin atrophy
- transcription of the Kindlin-1 gene in dorsal skin ([1]; topical 8 days, 1 nmole/cm^2, 'but not' = not decreased): strongly decreased
- transcription of the REDD1 gene in dorsal skin ([1]; topical 8 days, 1 nmole/cm^2, 'but not' = not increased): significantly increased
- bone area ([2]; s.c. 1 mg/kg daily, micro-CT): reduced
- cortical thickness ([2]; s.c. 1 mg/kg daily, micro-CT): drastically decreased
- tibia cortical bone volume as compared to the total volume ([2]; s.c. 1 mg/kg daily, micro-CT): significantly decreased
- marrow area ([2]; s.c. 1 mg/kg daily, 'but not' = not reduced): but not
- number of trabecula ([2]; data not shown): increase
- trabecular bone volume ([2]; data not shown): increased
- trabecular spacing ([2]; data not shown): decrease
- trabecular thickness ([2]; data not shown): no change
- kidney weight [4]: weak, but significant loss
- spleen weight decreased by [4]: more than 50%
- weight of the adrenal gland [4]: decreased
- plasmatic corticosterone levels ([5]; at both 10 a.m. and 6 p.m., compared to control mice (Vehicle)): much lower
- cortex layers, most notably the fasciculata zone, of the adrenal glands ([5]; three months, histology): drastically decreased
- glomerulosa zone of the adrenal cortex ([5]; three months, histology, 'but not' = not decreased): drastically decreased
- transcripts of Cyp11a, Cyp11b1 and HSD3β genes in adrenal glands ([5]; three months, q-RT-PCR): inhibited
- transcript of the Cyp11b2 gene in adrenal glands ([5]; three months, q-RT-PCR, 'but not' = not inhibited): inhibited
- lipid deposition in the liver ([8]; 5% Red oil staining of frozen sections): marked lipid deposition
- transcripts of fatty acid synthase (FASN) and Stearoyl-CoA desaturase 1 (SCD1) in liver ([8]; q-RT-PCR, 'but not' = no increase): increase
- blood cholesterol and bile acids' levels ([8]; 'but not' = no clear increase): clear increase
- transcription of the WNT16 gene decreased by [9]: 50%
SMILES: C[C@@H]1C[C@H]2[C@@H]3CCC4=CC(=O)C=C[C@]4(C)[C@@]3(F)[C@@H](O)C[C@]2(C)[C@@]1(O)C(=O)CO [Dex, Dexamethasone, reference compound]
- fat mass ([3]; pDEXA): disproportional increase
- lean percentage / lean mass ([3]; pDEXA): decrease
- body weight ([3]; compared with vehicle): net loss
- thymus apoptosis / thymus found [4]: no thymus was found in sixteen out of nineteen mice
- blood glucose level ([6]; three months, over-night fasting, vs vehicle and CpdX compounds): significantly higher
- blood glucose level in intraperitoneal glucose tolerance test (IPGTT) ([6]; two-hour period after glucose i.p. injection (2 mg/kg body weight)): significant higher
- IPITT test, response to insulin ([7]; one hour after insulin i.p. 0.75 U/kg): significant impaired response to insulin
- blood insulin level (hyperinsulinemia) ([7]; three months, 10 a.m., 'but not' = no hyperinsulinemia): hyperinsulinemia
- phosphorylation of insulin-stimulated protein kinase B (p-AKT S473) ([7]; western-blot, liver): decreased
- phosphorylated insulin receptor substrate 1 (p-IRS1 S318) in liver extracts ([7]; western-blot, 'but not' = no decrease): decrease

- GR functions induced (direct transactivation, direct transrepression, indirect tethered transrepression) [10]: all three GR functions
SMILES: Cc1ccc2c(NC[C@](O)(CC(C)(C)c3cc(F)cc4c3OCC4)C(F)(F)F)cccc2n1 [Mapracorat, reference compound]
